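Grown in 96-well plates, cells were treated for 48 hours with each compound at five concentrations. Insufficient inhibition: endpoint recorded as highest concentration tested. The concentration for 50% growth inhibition is given as GI50. TGI is the concentration that stops growth completely.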
Legend:
Test in all cases: inhibition of tumour cell growth, NCI panel, 48 h
HT29 colon = test system: HT29 colon
SNB-75 CNS = test system: SNB-75 CNS
786-0 renal = test system: 786-0 renal
MDA-N = test system: MDA-N
SF-268 CNS = test system: SF-268 CNS
HOP-92 NSCLC = test system: HOP-92 NSCLC
NCI/ADR-RES ovarian = test system: NCI/ADR-RES ovarian
SK-OV-3 ovarian = test system: SK-OV-3 ovarian
SN12C renal = test system: SN12C renal
EKVX NSCLC = test system: EKVX NSCLC
MDA-MB-435 = test system: MDA-MB-435
IGROV1 ovarian = test system: IGROV1 ovarian
OVCAR-3 ovarian = test system: OVCAR-3 ovarian
OVCAR-4 ovarian = test system: OVCAR-4 ovarian
MDA-MB-231 breast = test system: MDA-MB-231 breast
BT-549 breast = test system: BT-549 breast
UACC-257 melanoma = test system: UACC-257 melanoma
CAKI-1 renal = test system: CAKI-1 renal
CCRF-CEM leukemia = test system: CCRF-CEM leukemia
COLO 205 colon = test system: COLO 205 colon
KM12 colon = test system: KM12 colon
NCI-H522 lung = test system: NCI-H522 lung
SR leukemia = test system: SR leukemia
HCT-116 colon = test system: HCT-116 colon
MOLT-4 leukemia = test system: MOLT-4 leukemia
UO-31 renal = test system: UO-31 renal
SK-MEL-2 melanoma = test system: SK-MEL-2 melanoma
K-562 leukemia = test system: K-562 leukemia
SNB-19 CNS = test system: SNB-19 CNS
NCI-H460 lung = test system: NCI-H460 lung
LOX IMVI melanoma = test system: LOX IMVI melanoma
ACHN renal = test system: ACHN renal
UACC-62 melanoma = test system: UACC-62 melanoma
SK-MEL-5 melanoma = test system: SK-MEL-5 melanoma
SW-620 colon = test system: SW-620 colon
DU-145 prostate = test system: DU-145 prostate
M14 melanoma = test system: M14 melanoma
RXF 393 renal = test system: RXF 393 renal
HOP-62 NSCLC = test system: HOP-62 NSCLC
OVCAR-5 ovarian = test system: OVCAR-5 ovarian
A549 NSCLC = test system: A549 NSCLC
OVCAR-8 ovarian = test system: OVCAR-8 ovarian
PC-3 prostate = test system: PC-3 prostate
HS 578T breast = test system: HS 578T breast
U251 CNS = test system: U251 CNS
SF-539 CNS = test system: SF-539 CNS
MCF7 breast = test system: MCF7 breast
SF-295 CNS = test system: SF-295 CNS
HCT-15 colon = test system: HCT-15 colon
NCI-H23 lung = test system: NCI-H23 lung
TK-10 renal = test system: TK-10 renal
RPMI-8226 leukemia = test system: RPMI-8226 leukemia
MALME-3M melanoma = test system: MALME-3M melanoma
HL-60(TB) leukemia = test system: HL-60(TB) leukemia
HCC-2998 colon = test system: HCC-2998 colon
T-47D breast = test system: T-47D breast
NCI-H226 lung = test system: NCI-H226 lung
SK-MEL-28 melanoma = test system: SK-MEL-28 melanoma
A498 renal = test system: A498 renal

In the case of `C/C(=C\Cc1ccc(F)cc1)CCCCCC/C(C)=C/Cc1ccc(F)cc1`, the TGI (HT29 colon) is reported as 33.3 µM, the TGI (SNB-75 CNS) is reported as 35 µM and the TGI (786-0 renal) is reported as 21.9 µM. For the same compound, the TGI (MDA-N) was 34.2 µM, the TGI (SF-268 CNS) was 37.2 µM and the TGI (HOP-92 NSCLC) was 23.5 µM. It also gave a TGI (NCI/ADR-RES ovarian) of 31.9 µM, a TGI (SK-OV-3 ovarian) of 68.6 µM and a TGI (SN12C renal) of 31.5 µM. The TGI (EKVX NSCLC) was 37.2 µM, the TGI (MDA-MB-435) was 39 µM and the TGI (IGROV1 ovarian) was 26.7 µM. The TGI (OVCAR-3 ovarian) was 53.8 µM, the TGI (OVCAR-4 ovarian) was 34.2 µM and the TGI (MDA-MB-231 breast) was 37.9 µM. For the same compound, the TGI (BT-549 breast) was 79 µM, the TGI (UACC-257 melanoma) was 33.3 µM and the TGI (CAKI-1 renal) was 25.5 µM. For the same compound, the TGI (CCRF-CEM leukemia) was 42.6 µM, the TGI (COLO 205 colon) was 37.6 µM and the TGI (KM12 colon) was 5.61 µM. It also gave a TGI (NCI-H522 lung) of 21 µM, a TGI (SR leukemia) of 57.2 µM and a TGI (HCT-116 colon) of 33 µM. For the same compound, the TGI (MOLT-4 leukemia) was 47.6 µM, the TGI (UO-31 renal) was 23.1 µM and the TGI (SK-MEL-2 melanoma) was 37.2 µM. The TGI (K-562 leukemia) was 28.5 µM, the TGI (SNB-19 CNS) was 75.9 µM and the TGI (NCI-H460 lung) was 17 µM. The TGI (LOX IMVI melanoma) was 19.9 µM, the TGI (ACHN renal) was 24.8 µM and the TGI (UACC-62 melanoma) was 33 µM. The TGI (SK-MEL-5 melanoma) was 27.8 µM, the TGI (SW-620 colon) was 48.6 µM and the TGI (DU-145 prostate) was 27.8 µM. The TGI (M14 melanoma) was 45.6 µM, the TGI (RXF 393 renal) was 42.1 µM and the TGI (HOP-62 NSCLC) was 37.2 µM. The TGI (OVCAR-5 ovarian) was 37.9 µM, the TGI (A549 NSCLC) was 31.7 µM and the TGI (OVCAR-8 ovarian) was 39.6 µM. For the same compound, the TGI (PC-3 prostate) was 33.3 µM, the TGI (HS 578T breast) was 78.1 µM and the TGI (U251 CNS) was 37.8 µM. For the same compound, the TGI (SF-539 CNS) was 31.8 µM, the TGI (MCF7 breast) was 45.8 µM and the TGI (SF-295 CNS) was 24.6 µM. The TGI (HCT-15 colon) was 34.1 µM, the TGI (NCI-H23 lung) was 24 µM and the TGI (TK-10 renal) was 29.5 µM.
`Cc1ccc(S(=O)(=O)n2cc([C@@]3(O)C[C@H](CSC#N)OC3=O)c3ccccc32)cc1` showed a GI50 (HT29 colon) of 11.9 µM, a TGI (HT29 colon) of 55 µM and a GI50 (SNB-75 CNS) of 15.5 µM. The TGI (SNB-75 CNS) was 71 µM, the GI50 (786-0 renal) was 12.7 µM and the TGI (786-0 renal) was 26.5 µM. For the same compound, the GI50 (RPMI-8226 leukemia) was 2.75 µM, the TGI (RPMI-8226 leukemia) was 40.1 µM and the GI50 (SF-268 CNS) was 5.1 µM. For the same compound, the TGI (SF-268 CNS) was 19.7 µM, the GI50 (HOP-92 NSCLC) was 23.9 µM and the TGI (HOP-92 NSCLC) was 71.3 µM. The GI50 (MALME-3M melanoma) was 12.1 µM, the TGI (MALME-3M melanoma) was 35.2 µM and the GI50 (NCI/ADR-RES ovarian) was 13.5 µM. It also gave a TGI (NCI/ADR-RES ovarian) of 38.8 µM, a GI50 (SK-OV-3 ovarian) of 58.8 µM and a TGI (SK-OV-3 ovarian) greater than 100 µM. For the same compound, the GI50 (SN12C renal) was 7.97 µM, the TGI (SN12C renal) was 24.9 µM and the GI50 (EKVX NSCLC) was greater than 100 µM. It also gave a TGI (EKVX NSCLC) greater than 100 µM, a GI50 (HL-60(TB) leukemia) of 3.5 µM and a TGI (HL-60(TB) leukemia) of 12.2 µM. The GI50 (MDA-MB-435) was 6.78 µM, the TGI (MDA-MB-435) was 24.6 µM and the GI50 (IGROV1 ovarian) was 7.54 µM. For the same compound, the TGI (IGROV1 ovarian) was 22.4 µM, the GI50 (OVCAR-3 ovarian) was 8.81 µM and the TGI (OVCAR-3 ovarian) was 21 µM. The GI50 (OVCAR-4 ovarian) was 15.6 µM, the TGI (OVCAR-4 ovarian) was 43.3 µM and the GI50 (MDA-MB-231 breast) was 8.44 µM. For the same compound, the TGI (MDA-MB-231 breast) was 22.4 µM, the GI50 (BT-549 breast) was 16.9 µM and the TGI (BT-549 breast) was 33.1 µM. The GI50 (UACC-257 melanoma) was 10.9 µM, the TGI (UACC-257 melanoma) was 56.4 µM and the GI50 (CAKI-1 renal) was 0.0836 µM. The TGI (CAKI-1 renal) was 25.8 µM, the GI50 (CCRF-CEM leukemia) was 3.17 µM and the TGI (CCRF-CEM leukemia) was 25.2 µM. It also gave a GI50 (HCC-2998 colon) of 27 µM, a TGI (HCC-2998 colon) greater than 100 µM and a GI50 (COLO 205 colon) of 6.42 µM. For the same compound, the TGI (COLO 205 colon) was 33.6 µM, the GI50 (KM12 colon) was 4.65 µM and the TGI (KM12 colon) was 23 µM. It also gave a GI50 (NCI-H522 lung) of 3.99 µM, a TGI (NCI-H522 lung) of 18.1 µM and a GI50 (SR leukemia) of 0.41 µM. It also gave a TGI (SR leukemia) of 4.76 µM, a GI50 (HCT-116 colon) of 5.07 µM and a TGI (HCT-116 colon) of 17.7 µM. For the same compound, the GI50 (MOLT-4 leukemia) was 1.71 µM, the TGI (MOLT-4 leukemia) was 4.52 µM and the GI50 (UO-31 renal) was 4.62 µM. The TGI (UO-31 renal) was 19.3 µM, the GI50 (SK-MEL-2 melanoma) was 9.23 µM and the TGI (SK-MEL-2 melanoma) was 24.4 µM. The GI50 (T-47D breast) was 12.8 µM, the TGI (T-47D breast) was 32.5 µM and the GI50 (K-562 leukemia) was 6.2 µM. For the same compound, the TGI (K-562 leukemia) was 23.6 µM, the GI50 (SNB-19 CNS) was greater than 100 µM and the TGI (SNB-19 CNS) was greater than 100 µM. It also gave a GI50 (NCI-H460 lung) of 9.19 µM, a TGI (NCI-H460 lung) of 23.9 µM and a GI50 (LOX IMVI melanoma) of 8.83 µM. For the same compound, the TGI (LOX IMVI melanoma) was 66.4 µM, the GI50 (ACHN renal) was 11.2 µM and the TGI (ACHN renal) was 27.1 µM. It also gave a GI50 (UACC-62 melanoma) of 15 µM, a TGI (UACC-62 melanoma) of 35.5 µM and a GI50 (SK-MEL-5 melanoma) of 2.44 µM. The TGI (SK-MEL-5 melanoma) was 19.8 µM, the GI50 (SW-620 colon) was 5.98 µM and the TGI (SW-620 colon) was 19.5 µM. For the same compound, the GI50 (DU-145 prostate) was 4.39 µM, the TGI (DU-145 prostate) was 15.3 µM and the GI50 (M14 melanoma) was 7.94 µM. For the same compound, the TGI (M14 melanoma) was 35.9 µM, the GI50 (RXF 393 renal) was 2.13 µM and the TGI (RXF 393 renal) was 7.61 µM. The GI50 (HOP-62 NSCLC) was 25.1 µM, the TGI (HOP-62 NSCLC) was 57.4 µM and the GI50 (OVCAR-5 ovarian) was 13.2 µM. It also gave a TGI (OVCAR-5 ovarian) of 28.2 µM, a GI50 (A549 NSCLC) of 29.2 µM and a TGI (A549 NSCLC) greater than 100 µM. For the same compound, the GI50 (OVCAR-8 ovarian) was 10.2 µM, the TGI (OVCAR-8 ovarian) was 22.5 µM and the GI50 (PC-3 prostate) was 17.8 µM. It also gave a TGI (PC-3 prostate) of 50.4 µM, a GI50 (HS 578T breast) of 8.7 µM and a TGI (HS 578T breast) of 32.6 µM. For the same compound, the GI50 (NCI-H226 lung) was 16.8 µM, the TGI (NCI-H226 lung) was 32.6 µM and the GI50 (U251 CNS) was 12.8 µM. For the same compound, the TGI (U251 CNS) was 32.7 µM, the GI50 (SF-539 CNS) was 4.57 µM and the TGI (SF-539 CNS) was 16.2 µM. For the same compound, the GI50 (MCF7 breast) was 2.8 µM, the TGI (MCF7 breast) was 18.1 µM and the GI50 (SK-MEL-28 melanoma) was 14 µM. The TGI (SK-MEL-28 melanoma) was 27.7 µM, the GI50 (A498 renal) was 14.7 µM and the TGI (A498 renal) was 46.5 µM. The GI50 (SF-295 CNS) was 16.1 µM, the TGI (SF-295 CNS) was 69.2 µM and the GI50 (HCT-15 colon) was 13.6 µM. The TGI (HCT-15 colon) was 71.2 µM, the GI50 (NCI-H23 lung) was 26.5 µM and the TGI (NCI-H23 lung) was greater than 100 µM. The GI50 (TK-10 renal) was 16.3 µM and the TGI (TK-10 renal) was 37.8 µM.

Source: PubChem BioAssay (NCI)
